Results: patent US20250042920A1 (OCEAN UNIVERSITY OF CHINA, priority 2021, published 2025)
Each block holds one compound with its values, some of them ahead of it.

Key:
MNK2 = MNK2 (Homo sapiens, UniProt Q9HBH9); experiment: MNK2 kinase inhibition assay (LANCE Ultra kinase activity assay, PerkinElmer); assay type: biochemical; conditions: 100 μM ATP; for IC50: five concentrations 10000-1 nM; for inhibition at 1 µM: inhibition rate at 1000 nM compound, 60 min, 25° C., read-out: Inhibitory activity(1 μM) MNK2
MNK2, sequence (Q9HBH9 whole entry): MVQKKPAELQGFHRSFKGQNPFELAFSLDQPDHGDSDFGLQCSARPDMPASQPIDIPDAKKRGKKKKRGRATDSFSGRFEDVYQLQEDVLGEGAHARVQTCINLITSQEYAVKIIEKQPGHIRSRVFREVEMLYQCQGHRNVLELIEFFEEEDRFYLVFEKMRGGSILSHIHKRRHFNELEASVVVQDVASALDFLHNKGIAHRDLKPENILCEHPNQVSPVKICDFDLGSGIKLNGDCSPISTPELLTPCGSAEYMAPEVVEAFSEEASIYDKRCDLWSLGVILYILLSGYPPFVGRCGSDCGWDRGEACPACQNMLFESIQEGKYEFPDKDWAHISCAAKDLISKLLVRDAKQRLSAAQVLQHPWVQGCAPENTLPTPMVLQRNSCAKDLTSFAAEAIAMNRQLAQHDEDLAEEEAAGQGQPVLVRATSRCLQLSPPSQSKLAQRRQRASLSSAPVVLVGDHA
Description: (§1) MNK1 and MNK2 kinase inhibition assays were performed using LANCE Ultra kinase activity assay developed by PerkinElmer. […] The test steps are as follows: At 25° C., 1.00 ng MNK1 or 0.05 ng MNK2 was prepared with different concentrations (10000, 1000, 100, 10, 1 nM) of the tested compound to form a total volume of 10 μL reaction mixture (MNK1: 12.5 nM CREB, 450 μM ATP, 2 mM DTT, 1× buffer; MNK2: 12.5 nM CREB, 100 μM ATP, 2 mM DTT, 1×buffer), and incubation for 60 min. The reaction was terminated by adding 5 μL EDTA/Detection buffer and 5 μL Eu-CREB/Detection buffer. The ratio of HTRF signals at 615 nm and 665 nm was detected after 60 min of incubation. The inhibition rate was calculated by measuring the compounds at 1000 nM.
(§2) Then five different concentrations (10000, 1000, 100, 10, 1 nM) of the tested compounds were measured, and the IC50 value was calculated according to the inhibition rate fitting curve.

MNK1 = MNK1 (Homo sapiens, UniProt Q9BUB5); experiment: MNK1 kinase inhibition assay (LANCE Ultra kinase activity assay, PerkinElmer); assay type: biochemical; conditions: 450 μM ATP; for IC50: five concentrations 10000-1 nM; for inhibition at 1 µM: inhibition rate at 1000 nM compound, 60 min, 25° C., read-out: Inhibitory activity(1 μM) MNK1
MNK1, sequence (Q9BUB5 whole entry): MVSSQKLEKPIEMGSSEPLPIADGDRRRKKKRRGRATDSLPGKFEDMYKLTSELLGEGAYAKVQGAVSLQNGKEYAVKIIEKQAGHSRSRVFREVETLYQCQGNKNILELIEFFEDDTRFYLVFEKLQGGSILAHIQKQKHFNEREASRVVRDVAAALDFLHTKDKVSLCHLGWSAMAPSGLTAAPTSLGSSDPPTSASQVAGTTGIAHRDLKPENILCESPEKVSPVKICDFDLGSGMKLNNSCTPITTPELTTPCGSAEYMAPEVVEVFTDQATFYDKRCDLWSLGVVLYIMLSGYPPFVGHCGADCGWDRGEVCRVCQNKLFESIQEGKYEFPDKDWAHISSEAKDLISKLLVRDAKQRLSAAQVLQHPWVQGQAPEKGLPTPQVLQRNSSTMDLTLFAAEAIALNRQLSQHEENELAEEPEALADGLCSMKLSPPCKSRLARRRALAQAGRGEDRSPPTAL
Description: as §1, §2

SMILES: N#Cc1ccc(-c2cnc3sc(-c4ccc(C(=O)NCCCCCO)cc4)nn23)cc1 [Compound 42, 4-(5-(4-cyanophenyl)imidazo[2,1-b][1,3,4]thiadiazol-2-yl)-N-(5-hydroxypentyl)benzamide]
IC50 (MNK2): < 0.05 µM | inhibition at 1 µM (MNK2): > 75% | IC50 (MNK1): < 0.05 µM | inhibition at 1 µM (MNK1): > 75%

SMILES: N#Cc1ccc(-c2cnc3sc(-c4ccc(C(=O)NCCCN5CCOCC5)cc4)nn23)cc1 [Compound 37, 4-(5-(4-cyanophenyl)imidazo[2,1-b][1,3,4]thiadiazol-2-yl)-N-(3-morpholinopropyl)benzamide]
IC50 (MNK2): < 0.05 µM | inhibition at 1 µM (MNK2): > 75% | IC50 (MNK1): < 0.05 µM | inhibition at 1 µM (MNK1): > 75%

SMILES: N#Cc1ccc(-c2cnc3sc(-c4ccc(C(=O)OCCN5CCCC5)cc4)nn23)cc1 [Compound 31, 2-(pyrrolidin-1-yl)ethyl 4-(5-(4-cyanophenyl)imidazo[2,1-b][1,3,4]thiadiazol-2-yl)benzoate]
inhibition at 1 µM (MNK2): 25 to 50% | inhibition at 1 µM (MNK1): 25 to 50%

SMILES: CN1CCN(C(=O)c2ccc(-c3cn4c(-c5ccc(C#N)cc5)csc4n3)cc2)CC1 [Compound 48, 4-(6-(4-(4-methylpiperazine-1-carbonyl)phenyl)imidazo[2,1-b]thiazol-3-yl)benzonitrile]
inhibition at 1 µM (MNK2): 25 to 50% | inhibition at 1 µM (MNK1): 25 to 50%

SMILES: O=C(c1ccc(-c2cn3c(-c4ccc(C(F)(F)F)cc4)csc3n2)cc1)N1CCOCC1 [Compound 46, morpholino(4-(3-(4-(trifluoromethyl)phenyl)imidazo[2,1-b]thiazol-6-yl)phenyl)methanone]
inhibition at 1 µM (MNK2): 25 to 50% | inhibition at 1 µM (MNK1): 25 to 50%

SMILES: CC1CCCCN1C(=O)c1ccc(-c2nn3c(-c4ccc(C#N)cc4)cnc3s2)cc1 (stereo not shown) [Compound 41, 4-(2-(4-(2-methylpiperidine-1-carbonyl)phenyl)imidazo[2,1-b][1,3,4]thiadiazol-5-yl)benzonitrile]
IC50 (MNK2): < 0.05 µM | inhibition at 1 µM (MNK2): > 75% | IC50 (MNK1): < 0.05 µM | inhibition at 1 µM (MNK1): > 75%

SMILES: N#Cc1ccc(-c2csc3nc(-c4ccc(C(=O)N5CCOCC5)cc4)cn23)cc1 [Compound 43, 4-(6-(4-(morpholine-4-carbonyl)phenyl)imidazo[2,1-b]thiazol-3-yl)benzonitrile]
inhibition at 1 µM (MNK2): 25 to 50% | inhibition at 1 µM (MNK1): 25 to 50%

SMILES: N#Cc1ccc(-c2cnc3sc(-c4ccc(C(=O)NCCCO)cc4)nn23)cc1 [Compound 39, 4-(5-(4-cyanophenyl)imidazo[2,1-b][1,3,4]thiadiazol-2-yl)-N-(3-hydroxypropyl)benzamide]
IC50 (MNK2): < 0.05 µM | inhibition at 1 µM (MNK2): > 75% | IC50 (MNK1): < 0.05 µM | inhibition at 1 µM (MNK1): > 75%

SMILES: O=C(c1ccc(-c2cn3c(-c4ccc(Cl)cc4)csc3n2)cc1)N1CCOCC1 [Compound 47, (4-(3-(4-chlorophenyl)imidazo[2,1-b]thiazol-6-yl)phenyl)(morpholino)methanone]
inhibition at 1 µM (MNK2): 25 to 50% | inhibition at 1 µM (MNK1): 25 to 50%

SMILES: CN(C)CCNC(=O)c1ccc(-c2nn3c(-c4ccc(C#N)cc4)cnc3s2)cc1 [Compound 36, 4-(5-(4-cyanophenyl)imidazo[2,1-b][1,3,4]thiadiazol-2-yl)-N-(2-(dimethylamino)ethyl)benzamide]
IC50 (MNK2): < 0.05 µM | inhibition at 1 µM (MNK2): > 75% | IC50 (MNK1): < 0.05 µM | inhibition at 1 µM (MNK1): > 75%

The remaining lines, values ahead:

IC50 (MNK2): < 0.05 µM | inhibition at 1 µM (MNK2): > 75% | IC50 (MNK1): 0.05 to 0.2 µM | inhibition at 1 µM (MNK1): > 75%
SMILES: CN1CCN(C(=O)c2ccc(-c3nn4c(-c5ccc(F)cc5)cnc4s3)cc2)CC1 [Compound 18, (4-(5-(4-fluorophenyl)imidazo[2,1-b][1,3,4]thiadiazol-2-yl)phenyl)(4-methylpiperazin-1-yl)methanone]

inhibition at 1 µM (MNK2): 25 to 50% | inhibition at 1 µM (MNK1): 25 to 50%
SMILES: CN1CCN(C(=O)c2ccc(-c3nn4c(-c5ccc(F)cc5F)cnc4s3)cc2)CC1 [Compound 26, (4-(5-(2,4-difluorophenyl)imidazo[2,1-b][1,3,4]thiadiazol-2-yl)phenyl)(4-methylpiperazin-1-yl)methanone]

IC50 (MNK2): 0.05 to 0.2 µM | inhibition at 1 µM (MNK2): > 75% | IC50 (MNK1): 0.2 to 0.8 µM | inhibition at 1 µM (MNK1): > 75%
SMILES: CN1CCN(C(=O)c2ccc(-c3nn4c(-c5ccncc5)cnc4s3)cc2)CC1 [Compound 20, (4-methylpiperazin-1-yl)(4-(5-(pyridin-4-yl)imidazo[2,1-b][1,3,4]thiadiazol-2-yl)phenyl)methanone]

IC50 (MNK2): < 0.05 µM | inhibition at 1 µM (MNK2): > 75% | IC50 (MNK1): < 0.05 µM | inhibition at 1 µM (MNK1): > 75%
SMILES: CN1CCN(C(=O)c2ccc(-c3nn4c(-c5ccc([N+](=O)[O-])cc5)cnc4s3)cc2)CC1 [Compound 25, (4-methylpiperazin-1-yl)(4-(5-(4-nitrophenyl)imidazo[2,1-b][1,3,4]thiadiazol-2-yl)phenyl)methanone]

IC50 (MNK2): < 0.05 µM | inhibition at 1 µM (MNK2): > 75% | IC50 (MNK1): < 0.05 µM | inhibition at 1 µM (MNK1): > 75%
SMILES: CN(C)C1CCN(C(=O)c2ccc(-c3nn4c(-c5ccc(F)cc5)cnc4s3)cc2)CC1 [Compound 13, (4-(dimethylamino)piperidin-1-yl)(4-(5-(4-fluorophenyl)imidazo[2,1-b][1,3,4]thiadiazol-2-yl)phenyl)methanone]

IC50 (MNK2): 0.2 to 0.8 µM | inhibition at 1 µM (MNK2): > 75% | IC50 (MNK1): 0.2 to 0.8 µM | inhibition at 1 µM (MNK1): > 75%
SMILES: CN1CCN(C(=O)c2ccc(-c3nn4c(-c5ccc(C(F)(F)F)c(F)c5)cnc4s3)cc2)CC1 [Compound 23, (4-(5-(3-fluoro-4-(trifluoromethyl)phenyl)imidazo[2,1-b][1,3,4]thiadiazol-2-yl)phenyl)(4-methylpiperazin-1-yl)methanone]

IC50 (MNK2): < 0.05 µM | inhibition at 1 µM (MNK2): > 75% | IC50 (MNK1): < 0.05 µM | inhibition at 1 µM (MNK1): > 75%
SMILES: CN1CCN(C(=O)c2ccc(-c3nn4c(-c5ccc(Cl)cc5)cnc4s3)cc2)CC1 [Compound 22, (4-(5-(4-chlorophenyl)imidazo[2,1-b][1,3,4]thiadiazol-2-yl)phenyl)(4-methylpiperazin-1-yl)methanone]

inhibition at 1 µM (MNK2): > 75% | inhibition at 1 µM (MNK1): > 75%
SMILES: O=C(c1ccc(-c2nn3c(-c4ccc(F)c(F)c4)cnc3s2)cc1)N1CCOCC1 [Compound 11, (4-(5-(3,4-difluorophenyl)imidazo[2,1-b][1,3,4]thiadiazol-2-yl)phenyl)(morpholino)methanone]

inhibition at 1 µM (MNK2): 25 to 50% | inhibition at 1 µM (MNK1): 25 to 50%
SMILES: CN1CCN(C(=O)c2ccc(-c3cn4c(-c5ccc(F)cc5)csc4n3)cc2)CC1 [Compound 49, (4-(3-(4-fluorophenyl)imidazo[2,1-b]thiazol-6-yl)phenyl)(4-methylpiperazin-1-yl)methanone]

inhibition at 1 µM (MNK2): 25 to 50% | inhibition at 1 µM (MNK1): 25 to 50%
SMILES: CN1CCN(C(=O)c2ccc(-c3nn4c(-c5ccc(C#N)nc5)cnc4s3)cc2)CC1 [Compound 27, 5-(2-(4-(4-methylpiperazine-1-carbonyl)phenyl)imidazo[2,1-b][1,3,4]thiadiazol-5-yl)picolinonitrile]

IC50 (MNK2): < 0.05 µM | inhibition at 1 µM (MNK2): > 75% | IC50 (MNK1): < 0.05 µM | inhibition at 1 µM (MNK1): > 75%
SMILES: COc1ccc(-c2cnc3sc(-c4ccc(C(=O)N5CCC(N(C)C)CC5)cc4)nn23)cc1 [Compound 15, (4-(dimethylamino)piperidin-1-yl)(4-(5-(4-methoxyphenyl)imidazo[2,1-b][1,3,4]thiadiazol-2-yl)phenyl)methanone]

IC50 (MNK2): 0.2 to 0.8 µM | inhibition at 1 µM (MNK2): > 75% | IC50 (MNK1): 0.2 to 0.8 µM | inhibition at 1 µM (MNK1): > 75%
SMILES: O=C(c1ccc(-c2nn3c(-c4ccc(CO)cc4)cnc3s2)cc1)N1CCOCC1 [Compound 8]

IC50 (MNK2): < 0.05 µM | inhibition at 1 µM (MNK2): > 75% | IC50 (MNK1): < 0.05 µM | inhibition at 1 µM (MNK1): > 75%
SMILES: CN1CCN(C(=O)c2ccc(-c3nn4c(-c5ccc(C#N)cc5)cnc4s3)cc2)CC1 [Compound 17, 4-(2-(4-(4-methylpiperazine-1-carbonyl)phenyl)imidazo[2,1-b][1,3,4]thiadiazol-5-yl)benzonitrile]

inhibition at 1 µM (MNK2): 25 to 50% | inhibition at 1 µM (MNK1): 25 to 50%
SMILES: CN1CCN(C(=O)c2ccc(-c3nn4c(-c5ccc(C(F)(F)F)nc5)cnc4s3)cc2)CC1 [Compound 29, (4-methylpiperazin-1-yl)(4-(5-(6-(trifluoromethyl)pyridin-3-yl)imidazo[2,1-b][1,3,4]thiadiazol-2-yl)phenyl)methanone]
